In ChEMBL document CHEMBL1201862, “PubChem BioAssay data set” (2004):
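Each compound was tested at five concentrations against cells in 96-well plates for 48 hours. GI50 is the concentration that inhibits growth by half.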 Calls of active or inactive are those of the source. Rule as the data show it: active = GI50 up to about 1.1 µM and inactive = higher.

Legend:
Assay in all cases: inhibition of tumour cell growth, NCI panel, 48 h
[1] = system: K562
[2] = system: ACHN
[3] = system: NCI-H226
[4] = system: TK-10
[5] = system: RPMI-8226
[6] = system: OVCAR-8
[7] = system: OVCAR-5
[8] = system: A498
[9] = system: HOP-62
[10] = system: RXF 393
[11] = system: 786-0
[12] = system: SK-MEL-2
[13] = system: SK-MEL-5
[14] = system: NCI-H23
[15] = system: T47D
[16] = system: LOX IMVI
[17] = system: SNB-19
[18] = system: SN12C
[19] = system: U-251
[20] = system: EKVX
[21] = system: NCI/ADR-RES
[22] = system: HCT-15
[23] = system: SR
[24] = system: IGROV-1
[25] = system: NCI-H522
[26] = system: NCI-H460
[27] = system: OVCAR-4
[28] = system: Hs-578T
[29] = system: DU-145
[30] = system: HCC 2998
[31] = system: KM12
[32] = system: SF-295
[33] = system: UACC-62
[34] = system: HL-60
[35] = system: PC-3
[36] = system: COLO 205
[37] = system: MDA-MB-231
[38] = system: Malme-3M
[39] = system: CAKI-1
[40] = system: HOP-92
[41] = system: HCT-116
[42] = system: SF-268
[43] = system: UO-31
[44] = system: SK-OV-3
[45] = system: UACC-257
[46] = system: SK-MEL-28
[47] = system: CCRF-CEM
[48] = system: A549
[49] = system: SW-620
[50] = system: MDA-MB-435
[51] = system: MOLT-4
[52] = system: HT-29
[53] = system: SNB-75
[54] = system: SF-539
[55] = system: M14
[56] = system: MCF7

O=C1NC(=S)N(c2ccccc2)C1=O
GI50 [1]: > 100 µM (inactive)
GI50 [2]: > 100 µM (inactive)
GI50 [3]: > 100 µM (inactive)
GI50 [4]: > 100 µM (inactive)
GI50 [5]: > 100 µM (inactive)
GI50 [6]: > 100 µM (inactive)
GI50 [7]: > 100 µM (inactive)
GI50 [8]: > 100 µM (inactive)
GI50 [9]: > 100 µM (inactive)
GI50 [10]: > 100 µM (inactive)
GI50 [11]: > 100 µM (inactive)
GI50 [12]: > 100 µM (inactive)
GI50 [13]: > 100 µM (inactive)
GI50 [14]: > 100 µM (inactive)
GI50 [15]: > 100 µM (inactive)
GI50 [16]: > 100 µM (inactive)
GI50 [17]: > 100 µM (inactive)
GI50 [18]: > 100 µM (inactive)
GI50 [19]: > 100 µM (inactive)
GI50 [20]: > 100 µM (inactive)
GI50 [21]: > 100 µM (inactive)
GI50 [22]: > 100 µM
GI50 [23]: > 100 µM (inactive)
GI50 [24]: > 100 µM (inactive)
GI50 [25]: 3.79 µM (inactive)
GI50 [26]: > 100 µM (inactive)
GI50 [27]: > 100 µM (inactive)
GI50 [28]: > 100 µM (inactive)
GI50 [29]: > 100 µM (inactive)
GI50 [30]: > 100 µM (inactive)
GI50 [31]: > 100 µM (inactive)
GI50 [32]: > 100 µM (inactive)
GI50 [33]: > 100 µM (inactive)
GI50 [34]: > 100 µM (inactive)
GI50 [35]: > 100 µM (inactive)
GI50 [36]: > 100 µM (inactive)
GI50 [37]: > 100 µM (inactive)
GI50 [38]: > 100 µM (inactive)
GI50 [39]: > 100 µM (inactive)
GI50 [40]: > 100 µM (inactive)
GI50 [41]: > 100 µM (inactive)
GI50 [42]: > 100 µM (inactive)
GI50 [43]: > 100 µM (inactive)
GI50 [44]: > 100 µM (inactive)
GI50 [45]: > 100 µM (inactive)
GI50 [46]: > 100 µM (inactive)
GI50 [47]: > 100 µM (inactive)
GI50 [48]: > 100 µM (inactive)
GI50 [49]: > 100 µM (inactive)
GI50 [50]: > 100 µM (inactive)
GI50 [51]: > 100 µM (inactive)
GI50 [52]: > 100 µM (inactive)
GI50 [53]: > 100 µM (inactive)
GI50 [54]: > 100 µM (inactive)

C[C@H](N[C@H]1CCC[C@]1(O)C#Cc1ccc2c(c1)OCO2)c1ccccc1
GI50 [1]: 11.7 µM (inactive)
GI50 [2]: > 25 µM (inactive)
GI50 [3]: > 25 µM (inactive)
GI50 [4]: > 25 µM (inactive)
GI50 [5]: 8.89 µM (inactive)
GI50 [6]: > 25 µM (inactive)
GI50 [7]: > 25 µM (inactive)
GI50 [8]: > 25 µM (inactive)
GI50 [9]: > 25 µM (inactive)
GI50 [10]: > 25 µM (inactive)
GI50 [55]: 14.2 µM (inactive)
GI50 [12]: 8.61 µM (inactive)
GI50 [13]: 22.6 µM (inactive)
GI50 [14]: > 25 µM (inactive)
GI50 [15]: 21.8 µM (inactive)
GI50 [16]: > 25 µM (inactive)
GI50 [17]: > 25 µM (inactive)
GI50 [19]: 19.7 µM (inactive)
GI50 [20]: > 25 µM (inactive)
GI50 [21]: > 25 µM (inactive)
GI50 [22]: > 25 µM
GI50 [23]: 20.7 µM (inactive)
GI50 [24]: 14.3 µM (inactive)
GI50 [56]: > 25 µM (inactive)
GI50 [26]: 21.4 µM (inactive)
GI50 [27]: 14 µM (inactive)
GI50 [28]: > 25 µM (inactive)
GI50 [29]: > 25 µM (inactive)
GI50 [30]: 10.7 µM (inactive)
GI50 [31]: > 25 µM (inactive)
GI50 [32]: > 25 µM (inactive)
GI50 [33]: > 25 µM (inactive)
GI50 [34]: > 25 µM (inactive)
GI50 [35]: 13.6 µM (inactive)
GI50 [36]: 9.25 µM (inactive)
GI50 [37]: 22.1 µM (inactive)
GI50 [39]: > 25 µM (inactive)
GI50 [40]: 11.9 µM (inactive)
GI50 [42]: > 25 µM (inactive)
GI50 [43]: > 25 µM (inactive)
GI50 [44]: > 25 µM (inactive)
GI50 [45]: > 25 µM (inactive)
GI50 [46]: 15.5 µM (inactive)
GI50 [47]: > 25 µM (inactive)
GI50 [48]: > 25 µM (inactive)
GI50 [50]: > 25 µM (inactive)
GI50 [51]: 10.9 µM (inactive)
GI50 [52]: > 25 µM (inactive)
GI50 [53]: 15.4 µM (inactive)
